# Test results as given in the supplement of paper PMC10307832.
# Tests used:
# Test in all cases: relative viability (nuclei count vs DMSO), 5 days (fraction); higher = more cells survive
# [1] = compound: COC1=CC=C(C=C1)CN2C=CC3=C2C=C(C=C3)C(=O)NO + Cc1nc(NC(=O)N2CCC[C@H]2C(N)=O)sc1-c1ccnc(C(C)(C)C(F)(F)F)c1 [Alpelisib] (partner 2 µM)
# Method in brief: (§1)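 Relative viability is defined as nuclei in treated wells over nuclei in vehicle wells. Duplicate plates were run and medians reported. Lung cancer cell lines in 1536-well plates were dosed by pin tool one day after seeding, with one drug or with a fixed anchor-drug dose plus five library-drug doses (not always all listed) in √10 steps, and nuclei were counted after 5 days.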
# [2] = compound: COC1=CC=C(C=C1)CN2C=CC3=C2C=C(C=C3)C(=O)NO + Cc1nc(Nc2ncc(C(=O)Nc3c(C)cccc3Cl)s2)cc(N2CCN(CCO)CC2)n1 [Dasatinib] (partner 0.075 µM)
# Method in brief: as §1
# Veliparib + Crizotinib = compound: C[C@]1(c2nc3c(C(N)=O)cccc3[nH]2)CCCN1 [Veliparib] + C[C@@H](Oc1cc(-c2cnn(C3CCNCC3)c2)cnc1N)c1c(Cl)ccc(F)c1Cl [Crizotinib] (partner 1 µM)
# Method in brief: as §1
# Veliparib + Foretinib = compound: C[C@]1(c2nc3c(C(N)=O)cccc3[nH]2)CCCN1 [Veliparib] + COc1cc2c(Oc3ccc(NC(=O)C4(C(=O)Nc5ccc(F)cc5)CC4)cc3F)ccnc2cc1OCCCN1CCOCC1 [Foretinib] (partner 0.25 µM)
# Method in brief: as §1
cell line,measurement,setting,value
NCI-H650,relative viability,[1]; first compound 0.08 µM,1.01
same,relative viability,[1]; first compound 0.253 µM,1.16
same,relative viability,[1]; first compound 0.8 µM,1.05
same,relative viability,[1]; first compound 2.53 µM,1.03
same,relative viability,[1]; first compound 8 µM,0.892
same,relative viability,[2]; first compound 0.08 µM,0.492
same,relative viability,[2]; first compound 0.253 µM,0.432
same,relative viability,[2]; first compound 0.8 µM,0.473
same,relative viability,[2]; first compound 2.53 µM,0.474
same,relative viability,[2]; first compound 8 µM,0.408
same,relative viability,Veliparib + Crizotinib; first compound 0.02 µM,0.696
same,relative viability,Veliparib + Crizotinib; first compound 0.06325 µM,0.72
same,relative viability,Veliparib + Crizotinib; first compound 0.2 µM,0.708
same,relative viability,Veliparib + Crizotinib; first compound 0.6325 µM,0.665
same,relative viability,Veliparib + Crizotinib; first compound 2 µM,0.572
same,relative viability,Veliparib + Foretinib; first compound 0.02 µM,1.06
same,relative viability,Veliparib + Foretinib; first compound 0.06325 µM,0.95
same,relative viability,Veliparib + Foretinib; first compound 0.2 µM,1.05
same,relative viability,Veliparib + Foretinib; first compound 0.6325 µM,1
same,relative viability,Veliparib + Foretinib; first compound 2 µM,1.09
NCI-H661,relative viability,[1]; first compound 0.253 µM,0.464
same,relative viability,[1]; first compound 0.8 µM,0.595
same,relative viability,[1]; first compound 2.53 µM,0.512
same,relative viability,[1]; first compound 8 µM,0.626
same,relative viability,[2]; first compound 0.253 µM,0.985
same,relative viability,[2]; first compound 0.8 µM,0.957
same,relative viability,[2]; first compound 2.53 µM,0.802
same,relative viability,[2]; first compound 8 µM,0.579
same,relative viability,Veliparib + Crizotinib; first compound 0.02 µM,0.91
same,relative viability,Veliparib + Crizotinib; first compound 0.06325 µM,0.884
same,relative viability,Veliparib + Crizotinib; first compound 0.2 µM,0.909
same,relative viability,Veliparib + Crizotinib; first compound 0.6325 µM,0.885
same,relative viability,Veliparib + Crizotinib; first compound 2 µM,0.963
same,relative viability,Veliparib + Foretinib; first compound 0.02 µM,0.999
same,relative viability,Veliparib + Foretinib; first compound 0.06325 µM,1.02
same,relative viability,Veliparib + Foretinib; first compound 0.2 µM,0.866
same,relative viability,Veliparib + Foretinib; first compound 0.6325 µM,0.892
same,relative viability,Veliparib + Foretinib; first compound 2 µM,0.998
NCI-H727,relative viability,[1]; first compound 0.08 µM,0.525
same,relative viability,[1]; first compound 0.253 µM,0.515
same,relative viability,[1]; first compound 0.8 µM,0.626
same,relative viability,[1]; first compound 2.53 µM,0.654
same,relative viability,[1]; first compound 8 µM,0.562
same,relative viability,[2]; first compound 0.08 µM,0.349
same,relative viability,[2]; first compound 0.253 µM,0.315
same,relative viability,[2]; first compound 0.8 µM,0.437
same,relative viability,[2]; first compound 2.53 µM,0.417
same,relative viability,[2]; first compound 8 µM,0.303
same,relative viability,Veliparib + Crizotinib; first compound 0.02 µM,0.814
same,relative viability,Veliparib + Crizotinib; first compound 0.06325 µM,0.685
same,relative viability,Veliparib + Crizotinib; first compound 0.2 µM,0.855
same,relative viability,Veliparib + Crizotinib; first compound 0.6325 µM,0.668
same,relative viability,Veliparib + Crizotinib; first compound 2 µM,0.764
same,relative viability,Veliparib + Foretinib; first compound 0.02 µM,1.22
same,relative viability,Veliparib + Foretinib; first compound 0.06325 µM,0.66
same,relative viability,Veliparib + Foretinib; first compound 0.2 µM,0.816
same,relative viability,Veliparib + Foretinib; first compound 0.6325 µM,0.694
same,relative viability,Veliparib + Foretinib; first compound 2 µM,1.04
NCI-H838,relative viability,[1]; first compound 0.253 µM,0.981
same,relative viability,[1]; first compound 0.8 µM,0.91
same,relative viability,[1]; first compound 2.53 µM,1.03
same,relative viability,[1]; first compound 8 µM,0.874
same,relative viability,[2]; first compound 0.253 µM,0.265
same,relative viability,[2]; first compound 0.8 µM,0.31
same,relative viability,[2]; first compound 2.53 µM,0.297
same,relative viability,[2]; first compound 8 µM,0.258
same,relative viability,Veliparib + Crizotinib; first compound 0.02 µM,0.859
same,relative viability,Veliparib + Crizotinib; first compound 0.06325 µM,0.9
same,relative viability,Veliparib + Crizotinib; first compound 0.2 µM,0.851
same,relative viability,Veliparib + Crizotinib; first compound 0.6325 µM,0.83
same,relative viability,Veliparib + Crizotinib; first compound 2 µM,0.895
same,relative viability,Veliparib + Foretinib; first compound 0.02 µM,1.09
same,relative viability,Veliparib + Foretinib; first compound 0.06325 µM,0.987
same,relative viability,Veliparib + Foretinib; first compound 0.2 µM,1.04
same,relative viability,Veliparib + Foretinib; first compound 0.6325 µM,0.967
same,relative viability,Veliparib + Foretinib; first compound 2 µM,1.06
NCI-H1355,relative viability,[1]; first compound 0.08 µM,0.793
same,relative viability,[1]; first compound 0.253 µM,0.892
same,relative viability,[1]; first compound 0.8 µM,0.905
same,relative viability,[1]; first compound 2.53 µM,0.883
same,relative viability,[1]; first compound 8 µM,0.901
same,relative viability,[2]; first compound 0.253 µM,0.764
same,relative viability,[2]; first compound 0.8 µM,0.717
same,relative viability,[2]; first compound 2.53 µM,0.698
same,relative viability,[2]; first compound 8 µM,0.679
same,relative viability,Veliparib + Crizotinib; first compound 0.06325 µM,1.03
same,relative viability,Veliparib + Crizotinib; first compound 0.2 µM,0.996
same,relative viability,Veliparib + Crizotinib; first compound 0.6325 µM,0.986
same,relative viability,Veliparib + Crizotinib; first compound 2 µM,0.955
same,relative viability,Veliparib + Foretinib; first compound 0.06325 µM,0.879
same,relative viability,Veliparib + Foretinib; first compound 0.2 µM,0.965
same,relative viability,Veliparib + Foretinib; first compound 0.6325 µM,0.932
same,relative viability,Veliparib + Foretinib; first compound 2 µM,0.982
NCI-H1437,relative viability,[1]; first compound 0.08 µM,0.827
same,relative viability,[1]; first compound 0.253 µM,1.04
same,relative viability,[1]; first compound 0.8 µM,0.958
same,relative viability,[1]; first compound 2.53 µM,0.953
same,relative viability,[1]; first compound 8 µM,1.01
same,relative viability,[2]; first compound 0.08 µM,0.332
same,relative viability,[2]; first compound 0.253 µM,0.339
same,relative viability,[2]; first compound 0.8 µM,0.469
same,relative viability,[2]; first compound 2.53 µM,0.466
same,relative viability,[2]; first compound 8 µM,0.395
same,relative viability,Veliparib + Crizotinib; first compound 0.02 µM,0.902
same,relative viability,Veliparib + Crizotinib; first compound 0.06325 µM,0.929
same,relative viability,Veliparib + Crizotinib; first compound 0.2 µM,0.9
same,relative viability,Veliparib + Crizotinib; first compound 0.6325 µM,0.81
same,relative viability,Veliparib + Crizotinib; first compound 2 µM,0.834
same,relative viability,Veliparib + Foretinib; first compound 0.02 µM,1.12
same,relative viability,Veliparib + Foretinib; first compound 0.06325 µM,1.17
same,relative viability,Veliparib + Foretinib; first compound 0.2 µM,1.2
same,relative viability,Veliparib + Foretinib; first compound 0.6325 µM,1.24
same,relative viability,Veliparib + Foretinib; first compound 2 µM,1.23
NCI-H1563,relative viability,[1]; first compound 0.08 µM,0.798
same,relative viability,[1]; first compound 0.253 µM,0.947
same,relative viability,[1]; first compound 0.8 µM,0.946
same,relative viability,[1]; first compound 2.53 µM,0.964
same,relative viability,[1]; first compound 8 µM,0.839
same,relative viability,[2]; first compound 0.08 µM,0.435
same,relative viability,[2]; first compound 0.253 µM,0.485
same,relative viability,[2]; first compound 0.8 µM,0.436
same,relative viability,[2]; first compound 2.53 µM,0.433
same,relative viability,[2]; first compound 8 µM,0.399
same,relative viability,Veliparib + Crizotinib; first compound 0.02 µM,0.91
same,relative viability,Veliparib + Crizotinib; first compound 0.06325 µM,0.762
same,relative viability,Veliparib + Crizotinib; first compound 0.2 µM,0.89
same,relative viability,Veliparib + Crizotinib; first compound 0.6325 µM,0.857
same,relative viability,Veliparib + Crizotinib; first compound 2 µM,0.808
same,relative viability,Veliparib + Foretinib; first compound 0.02 µM,0.845
same,relative viability,Veliparib + Foretinib; first compound 0.06325 µM,0.917
same,relative viability,Veliparib + Foretinib; first compound 0.2 µM,1.03
same,relative viability,Veliparib + Foretinib; first compound 0.6325 µM,0.918
same,relative viability,Veliparib + Foretinib; first compound 2 µM,1.05
NCI-H1651,relative viability,[1]; first compound 0.08 µM,0.993
same,relative viability,[1]; first compound 0.253 µM,1.06
same,relative viability,[1]; first compound 0.8 µM,0.964
same,relative viability,[1]; first compound 2.53 µM,0.789
same,relative viability,[1]; first compound 8 µM,0.723
same,relative viability,[2]; first compound 0.08 µM,0.311
same,relative viability,[2]; first compound 0.253 µM,0.452
same,relative viability,[2]; first compound 0.8 µM,0.43
same,relative viability,[2]; first compound 2.53 µM,0.358
same,relative viability,[2]; first compound 8 µM,0.331
same,relative viability,Veliparib + Crizotinib; first compound 0.02 µM,0.926
same,relative viability,Veliparib + Crizotinib; first compound 0.06325 µM,0.853
same,relative viability,Veliparib + Crizotinib; first compound 0.2 µM,0.805
same,relative viability,Veliparib + Crizotinib; first compound 0.6325 µM,0.799
same,relative viability,Veliparib + Crizotinib; first compound 2 µM,0.83
same,relative viability,Veliparib + Foretinib; first compound 0.02 µM,0.793
same,relative viability,Veliparib + Foretinib; first compound 0.06325 µM,0.74
same,relative viability,Veliparib + Foretinib; first compound 0.2 µM,0.762
same,relative viability,Veliparib + Foretinib; first compound 0.6325 µM,0.724
same,relative viability,Veliparib + Foretinib; first compound 2 µM,0.692
